Measurements taken from patent publication US6342516B1, “Phenylazole compounds, process for producing the same and drugs for hyperlipemia” (Nippon Soda Co., Ltd., priority 1998, dated 2002).

Legend:
[1] = test system: cholesterol-fed hamsters; assay: Effect on serum lipids of cholesterol-fed hamsters (serum total cholesterol and triglyceride reduction rate); format: in vivo; settings: cholesterol-fed Syrian hamsters, oral once a day for 5 days, dose 25 mg/kg
Description: Pharmacological Test Example 1: Effect on serum lipids of cholesterol-fed hamsters
Syrian hamsters (Std:Syrian, Male, 4 weeks old) were freely fed with chow containing 1% cholesterol and 10% coconut oil for 3 weeks ad libitum.
At the last week of feeding, each of the test compounds was dissolved or suspended in either 0.1% hydrochloric acid solution or 1% polyethylene-hydrogenated castor oil (NIKKOL HCO-60) solution and was orally administrated to hamsters once a day for 5 days. For the hamsters of the control group, only the solvent was orally administered. Then, blood was collected from the abdominal vein under the condition of anesthesia with pentobarbital at 2-4 hours after the last administration, and the serum in the blood was separated. The serum total cholesterol value and the serum triglyceride value were determined by using autobiochemical analyzer with analizing kits, and reduction rate of the serum lipids was determined according to the equation indicated below based on the analyzed values for respective hamster groups.
Serum lipids reduction rate (%)=(Amount of serum lipids of the control group−Amount of serum lipids of the group administrated with the test compound)/Amount of serum lipids of the control group×100

[2] = test system: Lipid peroxidation activity in rat liver microsome; assay: Effect on lipid peroxidation in vitro (rat liver microsome, thiobarbituric acid method); format: biochemical; settings: rat liver microsomes, 500 μM cystein and 5 μM ferrous(II) sulfate, malonaldehyde by thiobarbituric acid method; read-out: Lipid Antiperoxidation Activity 50% Inhibition Concentration (IC50)
Description: Pharmacological Test Example 2: Effect on lipid peroxidation in vitro
Lipid peroxidation activity in rat liver microsome was determined according to the method of Malvy et al. (Malvy et al., Biochemical and Biophysical Research Communications, 95, 734-737 (1980)). More particularly, 500 μM cystein and 5 μM ferrous(II) sulfate were incubated with rat liver microsomes, and the amount of malonaldehyde produced due to the decomposition of lipid peroxide was determined according to thiobarbituric acid method. The concentration of the compounds required to inhibit the formation of lipid peroxide by 50% (IC50) was calculated.

[3] = test system: carbon tetrachloride induced liver damage model in rats; assay: Carbon tetrachloride induced liver damage model in rats (lipid peroxide in liver; serum GOT, GPT); format: in vivo, rats (SD-strain, male); settings: for Antioxidation Activity of Lipid: Mass of lipid peroxide / Antioxidation Activity of Lipid: Prevention Rate: liver at 24 hours; for Preventive Activity on Liver Disorder: GOT / Preventive Activity on Liver Disorder: GOT Prevention Rate / Preventive Activity on Liver Disorder: GPT / Preventive Activity on Liver Disorder: GPT Prevention Rate: serum
Description: Pharmacological Test Example 3: Effect on lipid peroxidation […] Effect of the compounds of the present invention on the produced lipid peroxide in liver was examined on carbon tetrachloride induced liver damage model in rats. Briefly, providing 5 SD-strain male rats (6 weeks old) for each group, carbon tetrachloride at the rate of 1 ml/kg or 2 ml/kg (0.5 ml/kg or 1 ml/kg based on carbon tetrachloride) was orally administered to the rats together with the equivalent dose of olive oil. At 24 hours after the administration of carbon tetrachloride, their livers were excised, and the produced amount of lipid peroxide in liver was determined by thiobarbituric acid method according to Uchiyama's method (Uchiyama, M., et al., Analytical biochemistry, 86, 271-278 (1978)). In parallel, as the indicator for liver disorder due to carbon tetrachloride, serum enzyme activity (GOT, GPT) was measured. Then each of the test compounds, which was either dissolved or suspended in either 0.1% hydrochloric acid solution or olive oil, was orally administered to the rats 3 times at 1 before and, 3 and 6 hours after the administration of carbon tetrachloride. For the rats of normal group and control groups, the solvent was orally administered. Based on the measured values for each groups, the inhibitory rate of producing peroxidized lipids and the inhibitory rate of causing liver disorder were calculated according to the following equation. Inhibitory rate of producing lipid peroxide (%)=[1−(Produced amount of lipid peroxide in the test compound group−Produced amount of lipid peroxide in the normal rat group)/(Produced amount of lipid peroxide in the control group−Produced amount of lipid peroxide in the normal rat group)]×100 Liver disorder preventing rate (%)=[1−(GOT amount of GPT amount in the test compound group−GOT amount or GPT amount in the normal rat group)/(GOT amount or GPT amount in the control group−GOT amount or GPT amount in the normal rat group)]×100 The results are presented in Table 8.

[4] = test system: rats (male SD-strain); settings: rat, in vivo, 100 mg/kg/day
Description: Pharmacological Test Example 4: Repeated Oral Administration Toxicity
The Compound with No. 3-1 was suspended in 1% polyethylene-hardened castor oil (NIKKOL HCO-60) solution, and the suspension was orally administered to rats (male SD-strain), 6 rats per group, at a rate of 100 mg/kg/day for 7 days.

[5] = CCl4: 0.5 ml/kg, dose 100 mg/kg oral 3 times
[6] = CCl4: 1 ml/kg, dose 10 mg/kg oral 3 times

Row | Compound | Serum lipids reduction rate comparing to Control group (%), Means of 3 animals: Total cholesterol [1] | Serum lipids reduction rate comparing to Control group (%), Means of 3 animals: Triglyceride [1] | IC50 [2] | also measured
1 | Cc1c(C)c2c(c(C)c1O)CCC(C)(CC(=O)Nc1ccc(-n3ccnc3)cc1)O2 (racemic) [3-4] | 37% | 80% | 2300 nM | 
2 | Cc1c(C)c2c(c(C)c1O)CCC(C)(CCC(=O)Nc1ccc(-n3ccnc3)cc1)O2 (racemic) [3-5] |  |  | 1300 nM | 
3 | Cc1c(C)c2c(c(C)c1O)CCC(C)(C(=O)NCCCCCC(=O)Nc1ccc(-n3ccnc3)cc1)O2 (racemic) [3-8] |  |  | 3800 nM | 
4 | Cc1c(C)c2c(c(C)c1O)CC(C)(C(=O)Nc1ccc(-n3ccnc3)cc1)O2 (racemic) [3-9] | 38% | 49% | 1900 nM | 
5 | Cc1c(C)c2c(c(C)c1O)CC(C)(CCC(=O)Nc1ccc(-n3ccnc3)cc1)O2 (racemic) [3-10] | 35% | 51% | 2100 nM | 
6 | Cc1c(C)c2c(c(C)c1O)CC(C)(CCCCC(=O)Nc1ccc(-n3ccnc3)cc1)O2 (racemic) [3-12] |  |  | 2500 nM | 
7 | CC(=O)Oc1c(C)c(C)c2c(c1C)CC(C)(C(=O)Nc1ccc(-n3ccnc3)cc1)O2 (racemic) [3-13] |  |  | 2800 nM | 
8 | Cc1c(C)c2c(c(C)c1OC(=O)c1ccccc1)CCC(C)(C(=O)Nc1ccc(-n3ccnc3)cc1)O2 (racemic) [3-14] | 22% | 31% | 2600 nM | 
9 | Cc1c(C)c2c(c(C)c1O)CC(C)(C=CC(=O)Nc1ccc(-n3ccnc3)cc1)O2 (racemic) [3-15] | 26% | 30% | 920 nM | 
10 | Cc1c(C)c2c(c(C)c1O)CC(C)(C=CC=CC(=O)Nc1ccc(-n3ccnc3)cc1)O2 (racemic) [3-16] |  |  | 2100 nM | 
11 | CC(=O)Oc1c(C)c(C)c2c(c1C)CC(C)(C(=O)Nc1ccc(-c3ccn[nH]3)cc1)O2 (racemic) [3-19] |  |  | 420 nM | 
12 | Cc1c(C)c2c(c(C)c1O)CCC(C)(C(=O)Nc1ccc(-n3ccnc3)cc1)O2 (racemic) [Compound No. 3-1, (±)-(6-Hydroxy-2,5,7,8-tetramethylchroman-2-yl)-N-[4-(imidazol-1-yl)phenyl]carboxamide] | 40% | 62% | 2700 nM | Antioxidation Activity of Lipid: Mass of lipid peroxide [3, 5]: 2.361 A535nm/g lever; Antioxidation Activity of Lipid: Prevention Rate [3, 5]: 96%; Preventive Activity on Liver Disorder: GOT [3, 5]: 137 IU/L; Preventive Activity on Liver Disorder: GOT Prevention Rate [3, 5]: 100%; Preventive Activity on Liver Disorder: GPT [3, 5]: 61 IU/L; Preventive Activity on Liver Disorder: GPT Prevention Rate [3, 5]: 86%; Repeated oral administration toxicity (death, toxicological symptoms) [4]: neither death nor any toxicological symptoms were observed
13 | Cc1c(C)c2c(c(C)c1O)CCC(C)(C(=O)Nc1ccc(-c3ccn[nH]3)cc1)O2 (racemic) [Compound No. 3-25, (±)-(6-hydroxy-2,5,7,8-tetramethylchroman-2-yl)-N-[4-(pyrrazol-5-yl)phenyl]carboxamide] |  |  | 490 nM | 
14 | COc1cc2cc(CCC(=O)Nc3ccc(-n4ccnc4)cc3)n(S(C)(=O)=O)c2cc1OC [4-100] | 26% | 33% |  | 
15 | O=C(COc1ncccn1)Nc1ccc(-n2ccnc2)cc1 [4-101] | 41% | 38% |  | 
16 | O=C(COc1nccc(C(F)(F)F)n1)Nc1ccc(-n2ccnc2)cc1 [4-103] | 35% | 46% |  | 
17 | O=C(CCOC1CCOC1)Nc1ccc(-n2ccnc2)cc1 (stereo not drawn) [4-104] | 25% | 38% |  | 
18 | Cc1cc(C(C)(C)C)c(O)c(C(C)(C)C)c1 [BHT, 2,6-t-Dibutyl-p-cresol, reference compound] |  |  | 2200 nM | 
19 | CC1=C(C)C(=O)C(C(CCCc2ccccc2)CCC(=O)Nc2ccc(-n3ccnc3)cc2)=C(C)C1=O (stereo not drawn) [Compound No. 3-28, N-[4-(imidazol-1-yl)phenyl]-7-phenyl-4-(3,5,6-trimethyl-1,4-benzoquinon-2-yl)heptanamide] | 29% | 23% | 3300 nM | Antioxidation Activity of Lipid: Mass of lipid peroxide [3, 6]: 5.781 A535nm/g lever; Antioxidation Activity of Lipid: Prevention Rate [3, 6]: 61%; Preventive Activity on Liver Disorder: GOT [3, 6]: 269 IU/L; Preventive Activity on Liver Disorder: GOT Prevention Rate [3, 6]: 76%; Preventive Activity on Liver Disorder: GPT [3, 6]: 82 IU/L; Preventive Activity on Liver Disorder: GPT Prevention Rate [3, 6]: 82%
20 | O=C(Nc1ccc(-n2ccnc2)cc1)c1cc2cc(Cl)ccc2[nH]1 [Compound No. 4-8] | 37% | 73% |  | 
21 | O=C(COc1cccnc1)Nc1ccc(-n2ccnc2)cc1 [Compound No. 4-85] | 39% | 44% |  | 
